Experimental data taken from publication PMC4020900 (International Journal of Nanomedicine, 2014).
≈ marks a conversion by molar mass, not a printed value.

Columns and labels:
[1] = stated in the introduction, method and reference not given; cited from earlier work
Caco-2 cells [2] = experiment: SRB cytotoxicity assay; format: cell-based; details: Homo sapiens, Caco-2, 24 h, read-out: IC50 (SRB assay)
[3] = Stability in pH 7.4 HBSS buffer with ascorbic acid; format: physicochemical; details: 100 μg/mL, 10 mM ascorbic acid, 37°C, 6 hours
Caco-2 cells [4] = experiment: Stability and metabolism on incubation with Caco-2 cells; format: in vitro ADME, human; details: 100 μg/mL, incubated with Caco-2 cells, pH 7.4 HBSS, 10 mM ascorbic acid, 37°C, 6 hours
Caco-2 cells [5] = experiment: Cellular uptake of FITC-conjugated drugs and their niosomes by Caco-2 cells; format: in vitro ADME, human; details: 100 μg/mL, 37°C, 6 hours incubation, n=3

## O=C(O[C@@H]1Cc2c(O)cc(O)cc2O[C@@H]1c1cc(O)c(O)c(O)c1)c1cc(O)c(O)c(O)c1 [EGCG, (−)-epigallocatechin gallate]
[1]
  Octanol/buffer partition coefficient P: 0.86±0.03
Caco-2 cells [2]
  IC50: 125 ± 3.3 µg/mL (≈ 272 µM)
[3]
  Drug present and unchanged: 86.2%
Caco-2 cells [4]
  Decrease of drug: 13.0%
Caco-2 cells [5]
  Uptake ± SD: 0.90±0.14 μg/mg protein
